Experiment [1] concerns production of CD69 by B lymphocytes in human whole blood. The experiment is described as follows: CD69 Whole Blood Assay. It is filed as cell-based. The conditions noted are these: Lymphocyte; human whole blood activated with goat F(ab')2 anti-human IgM, 20 hours. The source says: There is good evidence that B-cells play a key role in the pathogenesis of autoimmune and/or inflammatory disease. Protein-based therapeutics that deplete B cells such as Rituxan are effective against autoantibody-driven inflammatory diseases such as rheumatoid arthritis (Rastetter et al. (2004) Annu Rev Med 55:477). CD69 is the early activation marker in leukocytes including T cells, thymocytes, B cells, NK cells, neutrophils, and eosinophils. The CD69 human whole blood assay (Example 903) determines the ability of compounds to inhibit the production of CD69 by B lymphocytes in human whole blood activated by crosslinking surface IgM with goat F(ab′)2 anti-human IgM.
Human blood is obtained from healthy volunteers, with the following restrictions: 1 week drug-free, non-smokers. Blood (approximately 20 mls to test 8 compounds) is collected by venipuncture into Vacutainer tubes with sodium heparin.
Solutions of Formula I compounds at 1000 or 2000 μM in PBS (20×), are diluted by three-fold serial dilutions in 10% DMSO in PBS for a nine point dose-response curve. An aliquot of 5.5 μl of each compound is added in duplicate to a 2 ml 96-well plate; 5.5 μl of 10% DMSO in PBS is added as control and no-stimulus wells. Human whole blood—HWB (100 μl) is added to each well. After mixing the plates are incubated at 37° C., 5% CO2, 100% humidity for 30 minutes. Goat F(ab′)2 anti-human IgM (10 μl of a 500 μg/ml solution, 50 μg/ml final) is added to each well (except the no-stimulus wells) with mixing and the plates are incubated for an additional 20 hours. At the end of the 20 hour incubation, samples are incubated with fluorescent labeled antibodies for 30 minutes, at 37° C., 5% CO2, 100% humidity. Include induced control, unstained and single stains for compensation adjustments and initial voltage settings. Samples are then lysed with Pharmingen Lyse™ according to the manufacturer's instructions. Samples are then transferred to a 96 well plate suitable to be run on the AMS 96 well system on the BD Calibur FACS cell sorter instrument. Data acquired and Mean Fluorescence Intensity values were obtained using Cell Quest Software. Results are initially analyzed by FACS analysis software (Flow Jo). The IC50 values are calculated by ActivityBase™ using Xlfit™ version 3, equation 201.

For the next experiment, the target named is T1, p110 alpha (Homo sapiens, UniProt P42336).
T1 construct: purchased Upstate Group, Millipore; Dundee, UK
T1 sequence (P42336 whole entry, species assumed): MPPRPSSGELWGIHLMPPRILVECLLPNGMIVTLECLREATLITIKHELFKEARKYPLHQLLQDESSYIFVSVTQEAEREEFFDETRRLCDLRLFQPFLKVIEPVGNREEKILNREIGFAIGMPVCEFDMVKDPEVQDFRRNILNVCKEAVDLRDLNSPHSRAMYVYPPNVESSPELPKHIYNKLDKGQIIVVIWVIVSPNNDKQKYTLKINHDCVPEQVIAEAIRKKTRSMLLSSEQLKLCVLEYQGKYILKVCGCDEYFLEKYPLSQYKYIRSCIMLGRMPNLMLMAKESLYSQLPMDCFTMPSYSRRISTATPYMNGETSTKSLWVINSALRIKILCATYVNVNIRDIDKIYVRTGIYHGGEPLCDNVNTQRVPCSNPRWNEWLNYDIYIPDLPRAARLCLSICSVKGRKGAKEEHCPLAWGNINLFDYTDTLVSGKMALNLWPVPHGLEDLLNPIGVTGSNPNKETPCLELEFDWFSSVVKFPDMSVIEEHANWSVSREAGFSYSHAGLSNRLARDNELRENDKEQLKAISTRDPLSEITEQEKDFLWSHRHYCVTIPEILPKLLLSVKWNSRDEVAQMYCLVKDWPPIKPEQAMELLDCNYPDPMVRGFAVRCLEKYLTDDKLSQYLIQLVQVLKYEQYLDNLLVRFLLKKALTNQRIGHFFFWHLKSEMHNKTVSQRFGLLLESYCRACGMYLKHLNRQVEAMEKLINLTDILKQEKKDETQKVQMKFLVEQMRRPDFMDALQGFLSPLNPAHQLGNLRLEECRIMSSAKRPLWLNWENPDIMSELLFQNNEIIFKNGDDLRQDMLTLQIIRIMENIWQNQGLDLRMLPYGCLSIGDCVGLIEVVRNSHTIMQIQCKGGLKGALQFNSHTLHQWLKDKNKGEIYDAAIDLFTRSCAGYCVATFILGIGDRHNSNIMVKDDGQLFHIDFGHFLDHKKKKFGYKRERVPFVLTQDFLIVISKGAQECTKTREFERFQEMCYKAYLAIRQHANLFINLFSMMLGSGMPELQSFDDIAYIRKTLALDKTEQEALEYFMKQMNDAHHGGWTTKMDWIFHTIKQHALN
T1 sequence (P27986 whole entry partner, species assumed): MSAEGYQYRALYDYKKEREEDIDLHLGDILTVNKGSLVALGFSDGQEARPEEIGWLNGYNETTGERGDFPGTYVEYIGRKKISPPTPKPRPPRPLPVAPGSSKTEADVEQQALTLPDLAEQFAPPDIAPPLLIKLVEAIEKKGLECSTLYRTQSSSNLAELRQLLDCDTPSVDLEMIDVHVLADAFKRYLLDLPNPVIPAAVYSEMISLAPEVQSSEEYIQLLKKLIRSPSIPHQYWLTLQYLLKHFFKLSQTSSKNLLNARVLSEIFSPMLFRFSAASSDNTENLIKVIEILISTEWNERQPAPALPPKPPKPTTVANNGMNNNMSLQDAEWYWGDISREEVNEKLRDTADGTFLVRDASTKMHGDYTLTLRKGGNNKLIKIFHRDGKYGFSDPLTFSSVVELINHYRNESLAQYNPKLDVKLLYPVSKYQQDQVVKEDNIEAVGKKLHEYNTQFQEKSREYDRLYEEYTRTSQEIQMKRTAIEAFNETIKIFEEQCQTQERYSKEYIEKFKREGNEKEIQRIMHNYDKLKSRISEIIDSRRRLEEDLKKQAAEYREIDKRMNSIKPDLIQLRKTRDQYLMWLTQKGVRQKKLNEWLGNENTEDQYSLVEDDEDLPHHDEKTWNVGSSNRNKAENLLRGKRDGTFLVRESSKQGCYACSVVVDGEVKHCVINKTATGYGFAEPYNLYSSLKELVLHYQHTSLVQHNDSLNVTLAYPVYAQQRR
The experiment is described as follows: PI3K isoform inhibition assay (fluorescence polarization), p110 alpha. It is filed as biochemical. The conditions noted are these: delta/alpha selectivity ratio. The protocol:
(§1) Determination of the activity of PI3 kinase activity of Formula I compounds is possible by a number of direct and indirect detection methods.
(§2) PI3K enzymatic activity was assayed by measuring the amount of product phosphatidylinositol 3,4,5-phosphate (PIP3) formed from substrate 4,5 phosphatidylinositol 4,5-phosphate (PIP2) using a fluorescence polarization displacement assay. The decrease in fluorescence polarization of a fluorescent PIP3 probe is measured as it is displaced from a PIP3-binding protein GRP-1 detector by PI3K-catalyzed product. […] The kinase reactions were initiated by the addition of 40 ng/mL p110α/p85α, 300 ng/mL p110β/p85α, 40 ng/mL p110γ, or 40 ng/mL p110δ/p85α (Upstate Group, Millipore; Dundee, UK), and 10 μM PIP2 (Echelon Biosciences) to the wells. […] After 60 minutes of incubation at room temperature to allow equilibration of labeled and unlabeled PIP3 binding, the parallel and perpendicular components of the fluorescence emissions from each sample were measured at an excitation wavelength of 530 nm and an emission wavelength of 590 nm using an Envision fluorescent plate reader with a rhodamine filter (PerkinElmer Life and Analytical Sciences; Wellesley, Mass.). The assay is capable of detecting 0.1-2.0 μM PIP3 product. The Ki apparent values were obtained by fitting the dose-dependent inhibition data to the Morrison equation for tight-binding, competitive inhibitors. Reference: R. A. Copeland, Enzymes. “A Practical Introduction to Structure, Mechanism and Data Analysis”.
The same protocol may be used to establish Ki values for p110α (alpha) PI3K binding.
The four Class I PI 3-kinases are cloned into baculovirus vectors as follows: […]
A general note: Fluorescence polarisation rises when a labelled molecule tumbles more slowly, as on binding a larger partner.

Another experiment addresses T2, p110 delta (Homo sapiens, UniProt O00329).
T2 construct: purchased Upstate Group, Millipore; Dundee, UK
The experiment is described as follows: PI3K isoform inhibition assay (fluorescence polarization), p110 delta. It is filed as biochemical. Particulars: Ki apparent, Morrison equation; 25 μM ATP, 10 μM PIP2. The protocol: as §1, §2
The Formula I compound was serially diluted in 100% DMSO. The kinase reaction was incubated for 1 h at room temperature, and the reaction was terminated by the addition of PBS. IC50 values were subsequently determined using sigmoidal dose-response curve fit (variable slope). […]

Structures are written as SMILES.

In general, IC50 refers to the concentration needed to halve the response being measured. Read a low IC50 as greater potency.

T2 sequence (O00329 whole entry): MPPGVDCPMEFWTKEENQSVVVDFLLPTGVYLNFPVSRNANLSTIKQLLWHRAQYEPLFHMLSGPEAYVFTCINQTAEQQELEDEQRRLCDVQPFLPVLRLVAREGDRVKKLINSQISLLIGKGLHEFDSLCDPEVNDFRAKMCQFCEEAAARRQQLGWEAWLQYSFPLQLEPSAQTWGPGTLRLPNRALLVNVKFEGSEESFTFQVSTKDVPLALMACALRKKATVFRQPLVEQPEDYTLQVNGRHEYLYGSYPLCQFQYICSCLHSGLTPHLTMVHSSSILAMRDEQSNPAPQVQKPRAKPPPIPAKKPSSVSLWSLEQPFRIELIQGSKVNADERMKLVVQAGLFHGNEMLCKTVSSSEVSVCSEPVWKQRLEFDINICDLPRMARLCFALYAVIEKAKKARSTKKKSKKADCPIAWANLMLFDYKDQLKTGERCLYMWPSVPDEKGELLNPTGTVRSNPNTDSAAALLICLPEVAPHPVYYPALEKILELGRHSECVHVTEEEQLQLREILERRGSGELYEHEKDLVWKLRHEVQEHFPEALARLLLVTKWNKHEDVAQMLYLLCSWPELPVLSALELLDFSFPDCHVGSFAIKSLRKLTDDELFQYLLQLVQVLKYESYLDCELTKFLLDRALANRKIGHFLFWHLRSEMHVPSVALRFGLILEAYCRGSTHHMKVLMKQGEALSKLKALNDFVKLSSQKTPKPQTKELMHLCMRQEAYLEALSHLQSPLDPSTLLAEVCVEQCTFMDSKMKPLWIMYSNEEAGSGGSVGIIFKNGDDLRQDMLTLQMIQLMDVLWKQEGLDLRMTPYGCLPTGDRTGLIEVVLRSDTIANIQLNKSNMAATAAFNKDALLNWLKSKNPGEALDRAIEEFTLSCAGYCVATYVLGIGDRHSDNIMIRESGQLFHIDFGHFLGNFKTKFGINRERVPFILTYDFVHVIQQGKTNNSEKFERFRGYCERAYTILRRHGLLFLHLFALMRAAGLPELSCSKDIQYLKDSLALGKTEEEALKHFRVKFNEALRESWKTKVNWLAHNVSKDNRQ
T2 sequence (P27986 whole entry partner): as the sequence (P27986 whole entry partner, species assumed) above

As for `CC(C)C(=O)N1CC(Oc2nc3c(N4CCOCC4)nc(-n4c(C(C)C)nc5ccccc54)nc3n2C)C1` [Compound 107, 1-(3-(2-(2-isopropyl-1H-benzo[d]imidazol-1-yl)-9-methyl-6-morpholino-9H-purin-8-yloxy)azetidin-1-yl)-2-methylpropan-1-one], the concentration for half-maximal inhibition (IC50) in experiment [1] came out at 8.3 nM. The “Ki p110 alpha/ Ki p110 delta” value at p110 alpha turned out to be 173. For the same molecule, the Ki on p110 delta is 0.38 nM.

As for `CC(C)C(=O)N1CC(Oc2nc3c(N4CCOCC4)nc(-n4c(N(C)C)nc5ccccc54)nc3n2C)C1` [Compound 131, 1-(3-(2-(2-(dimethylamino)-1H-benzo[d]imidazol-1-yl)-9-methyl-6-morpholino-9H-purin-8-yloxy)azetidin-1-yl)-2-methylpropan-1-one], the IC50 in experiment [1] worked out at 14.6 nM. For the same molecule, on p110 alpha, the “Ki p110 alpha/ Ki p110 delta” value amounted to 180. In addition, on p110 delta, the Ki was 3.65 nM.

For `CCc1nc2ccccc2n1-c1nc(N2CCOCC2)c2nc(OC3CNC3)n(C)c2n1` [Compound 133, 4-(8-(azetidin-3-yloxy)-2-(2-ethyl-1H-benzo[d]imidazol-1-yl)-9-methyl-9H-purin-6-yl)morpholine], the concentration for half-maximal inhibition (IC50) in experiment [1] was 10.8 nM. On p110 alpha, the “Ki p110 alpha/ Ki p110 delta” value worked out at 27. Besides, the Ki at p110 delta is 8.53 nM.

In turn, `CC(C)c1nc2ccccc2n1-c1nc(N2CCOCC2)c2nc(OC3CN(CC(C)(C)O)C3)n(C)c2n1` [Compound 105, 1-(3-(2-(2-isopropyl-1H-benzo[d]imidazol-1-yl)-9-methyl-6-morpholino-9H-purin-8-yloxy)azetidin-1-yl)-2-methylpropan-2-ol] showed a 50% inhibitory concentration (IC50) in experiment [1] of 28.1 nM. For the same molecule, at p110 alpha, the “Ki p110 alpha/ Ki p110 delta” value was found to be 93. Besides, the Ki on p110 delta is 2.03 nM.

As to `CC(C)c1nc2ccccc2n1-c1nc(N2CCOCC2)c2nc(OC3CN(C4CCS(=O)(=O)CC4)C3)n(C)c2n1` [Compound 103, 4-(2-(2-isopropyl-1H-benzo[d]imidazol-1-yl)-9-methyl-8-(1-(1,1-dioxo-tetrahydro-2H-thiopyran-4-yl)azetidin-3-yloxy)-9H-purin-6-yl)morpholine], the IC50 in experiment [1] was 3 nM. Also, the “Ki p110 alpha/ Ki p110 delta” value on p110 alpha was 256. For the same molecule, the Ki on p110 delta worked out at 0.464 nM.

Take `CN(C)c1nc2ccccc2n1-c1nc(N2CCOCC2)c2nc(OC3CN(C4CCS(=O)(=O)CC4)C3)n(C)c2n1` [Compound 137, N,N-dimethyl-1-(9-methyl-6-morpholino-8-(1-(1,1-dioxo-tetrahydro-2H-thiopyran-4-yl)azetidin-3-yloxy)-9H-purin-2-yl)-1H-benzo[d] imidazol-2-amine]: the “Ki p110 alpha/ Ki p110 delta” value on p110 alpha was 121. The Ki on p110 delta is 4.73 nM.

Regarding `CCc1nc2ccccc2n1-c1nc(N2CCOCC2)c2nc(OC3CN(C(=O)[C@@H]4CC45CCC5)C3)n(C)c2n1` [Compound 153, (R)-(3-(2-(2-ethyl-1H-benzo [d]imidazol-l-yl)-9-methyl-6-morpholino-9H-purin-8-yloxy)azetidin-1-yl) (spiro[2.3]hexan-1-yl) methanone], the “Ki p110 alpha/ Ki p110 delta” value on p110 alpha is on record as 159. For the same molecule, the Ki at p110 delta came to 0.734 nM.

As to `CCc1nc2ccccc2n1-c1nc(N2CCOCC2)c2nc(OC3CCN(C4CCC(O)CC4)CC3)n(C)c2n1` (single isomer, unassigned) [Compound 130, 4-(4-(2-(2-ethyl-1H-benzo[d]imidazol-1-yl)-9-methyl-6-morpholino-9H-purin-8-yloxy)piperidin-1-yl)cyclohexanol], the “Ki p110 alpha/ Ki p110 delta” value on p110 alpha was 151. Further, the Ki at p110 delta turned out to be 0.594 nM.

For `CCc1nc2ccccc2n1-c1nc(N2CCOCC2)c2nc(OC3CN(C(=O)C4(COC)CC4)C3)n(C)c2n1` [Compound 156, (3-(2-(2-ethyl-1H-benzo[d]imidazol-1-yl)-9-methyl-6-morpholino-9H-purin-8-yloxy)azetidin-1-yl)(1-(methoxymethyl)cyclopropyl) methanone], the “Ki p110 alpha/ Ki p110 delta” value on p110 alpha came out at 76. For the same molecule, the Ki on p110 delta was 0.539 nM.

In turn, `CCc1nc2ccccc2n1-c1nc(N2CCOCC2)c2nc(OC3CN(C(=O)C(C)C)C3)[nH]c2n1` [Compound 128, 1-(3-(2-(2-ethyl-1H-benzo[d]imidazol-1-yl)-6-morpholino-9H-purin-8-yloxy)azetidin-1-yl)-2-methylpropan-1-one] had an IC50 in experiment [1] of 15.9 nM. The “Ki p110 alpha/ Ki p110 delta” value at p110 alpha came out at 141. Also, the Ki on p110 delta came out at 0.629 nM.

For the molecule `CCc1nc2ccccc2n1-c1nc(N2CCOCC2)c2nc(OC3CCN(C(=O)C(C)(C)C)CC3)n(C)c2n1` [Compound 113, 1-(4-(2-(2-ethyl-1H-benzo[d]imidazol-1-yl)-9-methyl-6-morpholino-9H-purin-8-yloxy)piperidin-1-yl)-2,2-dimethylpropan-1-one], the “Ki p110 alpha/ Ki p110 delta” value on p110 alpha was 178. The Ki at p110 delta was found to be 0.879 nM.

In experiment [1], `CCc1nc2ccccc2n1-c1nc(N2CCOCC2)c2nc(OC3CCN(C4CCOCC4)CC3)n(C)c2n1` [Compound 101, 4-(2-(2-ethyl-1H-benzo[d]imidazol-1-yl)-9-methyl-8-(1-(tetrahydro-2H-pyran-4-yl)piperidin-4-yloxy)-9H-purin-6-yl)morpholine] showed a half-maximal inhibitory concentration (IC50) of 35.4 nM. In addition, the “Ki p110 alpha/ Ki p110 delta” value on p110 alpha came to 78. Moreover, the Ki on p110 delta worked out at 1.84 nM.

For `CCc1nc2ccccc2n1-c1nc(N2CCOCC2)c2nc(OC3CN(C(=O)C4(C(F)(F)F)CC4)C3)n(C)c2n1` [Compound 155, (3-(2-(2-ethyl-1H-benzo[d]imidazol-1-yl)-9-methyl-6-morpholino-9H-purin-8-yloxy)azetidin-1-yl)(1-(trifluoromethyl)cyclopropyl) methanone], the “Ki p110 alpha/ Ki p110 delta” value on p110 alpha amounted to 91. In addition, at p110 delta, the Ki is 0.321 nM.

For the molecule `Cn1c(OC2CN(C3CCS(=O)(=O)CC3)C2)nc2c(N3CCOCC3)nc(-n3c(C(C)(F)F)nc4ccccc43)nc21` [Compound 139, 4-(2-(2-(1,1-difluoroethyl)-1H-benzo[d]imidazol-1-yl)-9-methyl-8-(1-(1,1-dioxo-tetrahydro-2H-thiopyran-4-yl)azetidin-3-yloxy)-9H-purin-6-yl)morpholine], the “Ki p110 alpha/ Ki p110 delta” value on p110 alpha is recorded as 59. Also, the Ki on p110 delta is 1.42 nM.
